Results: ChEMBL document CHEMBL2010751, “Synthesis of a novel suppressor of beta-cell apoptosis via diversity-oriented synthesis” (ACS Med Chem Lett, 2011)
Active and inactive are the calls of the source. No cut-off for these calls is given here.

Tests used:
[1] = Inhibition of IL-1beta, IFN-gamma and TNF-alpha-induced apoptosis of rat INS-1E cells assessed as maximum activity to restoring cell viability after 48 hrs by luciferase based CellTiter-Glo assay; type: functional
[2] = Inhibition of IL-1beta, IFN-gamma and TNF-alpha-induced apoptosis of rat INS-1E cells assessed as restoring cell viability after 48 hrs by luciferase based CellTiter-Glo assay; type: functional
[3] = system: INS-1E; experiment: Inhibition of IL-1beta, IFN-gamma and TNF-alpha-induced apoptosis of rat INS-1E cells assessed as decrease in nitrite production after 48 hrs by Griess assay; type: functional, cell-based
[4] = system: INS-1E; experiment: Inhibition of IL-1beta, IFN-gamma and TNF-alpha-induced apoptosis of rat INS-1E cells assessed as restoration of mitochondrial membrane potential at 0.25 to 5 uM after 48 hrs by JC-1 staining analysis; type: functional, cell-based
[5] = system: INS-1E; experiment: Inhibition of IL-1beta, IFN-gamma and TNF-alpha-induced apoptosis of rat INS-1E cells assessed as glucose-stimulated insulin secretion at 5 uM after 48 hrs by ELISA; type: functional, cell-based
[6] = system: INS-1E; experiment: Inhibition of IL-1beta, IFN-gamma and TNF-alpha-induced apoptosis of rat INS-1E cells assessed as decrease in caspase-3 activity after 48 hrs by luminescence assay; type: functional, cell-based

Row | SMILES | Activity [1] [%] | EC50 [2] [µM] | inhibition [3] | inhibition [4] | inhibition [5] | inhibition [6]
1 | COc1ccc(S(=O)(=O)N(C)C[C@@H]2Oc3c(NC(=O)Nc4cccc5ccccc45)cccc3C(=O)N([C@@H](C)CO)C[C@H]2C)cc1C | 76 | 3.5 |  |  |  | 
2 | CC(C)N1C[C@@H](C)[C@H](CN(C)S(=O)(=O)c2ccc3c(c2)OCCO3)Oc2c(NC(=O)Nc3cccc4ccccc34)cccc2C1=O | 89 | 2.79 |  |  |  | 
3 | C[C@@H]1CN([C@@H](C)CO)C(=O)c2cccc(NC(=O)Nc3cccc4ccccc34)c2O[C@H]1CN(C)S(=O)(=O)c1ccc2c(c1)OCCO2 | 99 | 0.78 | Dose-dependent effect | Active | Active | Dose-dependent effect
4 | C[C@@H]1CN([C@@H](C)CO)C(=O)c2cccc(NC(=O)Nc3cccc(Cl)c3Cl)c2O[C@H]1CN(C)S(=O)(=O)c1ccc2c(c1)OCCO2 | 0 | > 20 |  |  |  | 
5 | COc1ccc(S(=O)(=O)N(C)C[C@@H]2Oc3c(NC(=O)NC4CCCc5ccccc54)cccc3C(=O)N([C@@H](C)CO)C[C@H]2C)cc1 (stereo partly drawn) | 0 | > 20 |  |  |  | 
6 | COc1ccc(S(=O)(=O)N(C)C[C@@H]2Oc3c(NC(=O)Nc4cccc5c4CCCC5)cccc3C(=O)N([C@@H](C)CO)C[C@H]2C)cc1 | 0 | > 20 |  |  |  | 
7 | COc1ccc(S(=O)(=O)N(C)C[C@@H]2Oc3c(NC(=O)Nc4cccc5ccccc45)cccc3C(=O)N(C(C)C)C[C@H]2C)cc1 | 76 | 3.06 |  |  |  | 
8 | COc1ccc(S(=O)(=O)N(C)C[C@@H]2Oc3c(NC(=O)Nc4cccc5ccccc45)cccc3C(=O)N([C@@H](C)CO)C[C@H]2C)cc1 | 62 | 4.89 |  |  |  | 
9 | C[C@@H]1CN([C@@H](C)CO)C(=O)c2cccc(NC(=O)Nc3cccc4ccccc34)c2O[C@H]1CN(C)S(=O)(=O)c1ccc(Oc2ccccc2)cc1 | 0 | > 20 |  |  |  | 
10 | COc1cccc(S(=O)(=O)N(C)C[C@@H]2Oc3c(NC(=O)Nc4cccc5ccccc45)cccc3C(=O)N([C@@H](C)CO)C[C@H]2C)c1 | 0 | > 20 |  |  |  | 
11 | COc1ccc(S(=O)(=O)N(C)C[C@@H]2Oc3c(NC(=O)Nc4ccc5occc5c4)cccc3C(=O)N([C@@H](C)CO)C[C@H]2C)cc1 | 0 | > 20 |  |  |  | 
12 | COc1ccccc1S(=O)(=O)N(C)C[C@@H]1Oc2c(NC(=O)Nc3cccc4ccccc34)cccc2C(=O)N([C@@H](C)CO)C[C@H]1C | 0 | > 20 |  |  |  | 
